Test results taken from US20220296535A1, “Antibacterial Dosage Regime Using Cannabinoids” (Botanix Pharmaceuticals Limited, priority 2019, published 2022).
≈ marks a conversion by molar mass, not a printed value. Where “and” joins values, the source holds several entries; their conditions need not be identical. Identical values can stand only once. Like-named read-outs stand apart in the source and are kept apart here.

Assays:
Assay type in all cases: cell-based
[1] = tested on: Staphylococcus epidermidis ATCC 12228; experiment: Expanded panel MIC micro-broth dilution; settings: CaMHB
Experimental: (§1) The collaborator supplied sample as dry material. Angela Kavanagh prepared a stock solution at 10 mg/mL in neat DMSO. The highest concentration tested in the assay was 64 μg/mL for bacteria and 128 μg/mL for fungi. 2% DMSO was the final concentration using 1/20 dilution to achieve these concentrations.
(§2) The compound was serially diluted in Cation-adjusted Mueller Hinton Broth (CaMHB; BD, Cat. No. 212322) two-fold across the wells of polystyrene (PS) 96-well plates (Corning; Cat. No. 3370), plated in duplicate. All plates had flat bottom wells and were covered with low-evaporation lids.
(§3) Bacteria were cultured in CaMHB at 37° C. overnight, then diluted 40-fold and incubated at 37° C. for a further 2-3 h. The resultant mid-log phase cultures were diluted in CaMHB and added to each well of the compound-containing 96-well plates to give a final cell density of 5×10^5 CFU/mL, and a final compound concentration range of 0.03-64 μg/mL. The plates were covered and incubated at 37° C. for 20 h.
(§4) Inhibition of bacterial growth was determined visually, where the MIC was recorded as the lowest compound concentration with no visible growth.

[2] = tested on: Staphylococcus aureus ATCC 25923; experiment: Expanded panel MIC micro-broth dilution; settings: CaMHB
Experimental: as §1, §2, §3, §4

[3] = tested on: Bacillus subtilis ATCC 6633; experiment: Expanded panel MIC micro-broth dilution; settings: CaMHB
Experimental: as §1, §2, §3, §4

[4] = tested on: Enterococcus faecium ATCC 35667; experiment: Expanded panel MIC micro-broth dilution; settings: CaMHB
Experimental: as §1, §2, §3, §4

[5] = tested on: Staphylococcus aureus ATCC 700699, NRS 1; experiment: Expanded panel MIC micro-broth dilution; settings: CaMHB, read-out: Cannabidiol MIC (Batch 1)
Experimental: as §1, §2, §3, §4

[6] = tested on: Enterococcus faecalis ATCC 29212; experiment: Expanded panel MIC micro-broth dilution; settings: ATCC29212, CaMHB, read-out: Cannabidiol MIC (Batch 1)
Experimental: as §1, §2, §3, §4

[7] = tested on: Staphylococcus aureus NARSA, VRS1; experiment: Expanded panel MIC micro-broth dilution; settings: CaMHB
Experimental: as §1, §2, §3, §4

[8] = tested on: Staphylococcus warneri ATCC 27836; experiment: Expanded panel MIC micro-broth dilution; settings: CaMHB
Experimental: as §1, §2, §3, §4

[9] = tested on: Streptococcus pyogenes ATCC 12344; experiment: Expanded panel MIC micro-broth dilution; settings: ATCC12344, CaMHB, read-out: Cannabidiol MIC (Batch 1)
Experimental: as §1, §2, §3, §4

[10] = tested on: Bacillus cereus ATCC 11778; experiment: Expanded panel MIC micro-broth dilution; settings: CaMHB
Experimental: as §1, §2, §3, §4

[11] = tested on: Kocuria rosea ATCC 31251; experiment: Expanded panel MIC micro-broth dilution; settings: CaMHB
Experimental: as §1, §2, §3, §4

[12] = tested on: Staphylococcus capitis ATCC 27840; experiment: Expanded panel MIC micro-broth dilution; settings: CaMHB
Experimental: as §1, §2, §3, §4

[13] = tested on: Staphylococcus warneri Clinical isolate; experiment: Expanded panel MIC micro-broth dilution; settings: CaMHB
Experimental: as §1, §2, §3, §4

[14] = tested on: Staphylococcus aureus ATCC 33591; experiment: Expanded panel MIC micro-broth dilution; settings: CaMHB
Experimental: as §1, §2, §3, §4

[15] = tested on: Streptococcus pneumoniae ATCC 33400; experiment: Expanded panel MIC micro-broth dilution; settings: CaMHB
Experimental: as §1, §2, §3, §4

[16] = tested on: Staphylococcus aureus ATCC 29213; experiment: Expanded panel MIC micro-broth dilution; settings: CaMHB
Experimental: as §1, §2, §3, §4

[17] = tested on: Bacillus megaterium ATCC 13632; experiment: Expanded panel MIC micro-broth dilution; settings: CaMHB
Experimental: as §1, §2, §3, §4

[18] = tested on: Staphylococcus aureus ATCC 43300; experiment: Expanded panel MIC micro-broth dilution; settings: ATCC43300, CaMHB, read-out: Cannabidiol MIC (Batch 1)
Experimental: as §1, §2, §3, §4

[19] = tested on: Streptococcus pneumoniae ATCC 700677; experiment: Expanded panel MIC micro-broth dilution; settings: ATCC700677, CaMHB, read-out: Cannabidiol MIC (Batch 1)
Experimental: as §1, §2, §3, §4

[20] = tested on: Staphylococcus epidermidis ATCC 14990; experiment: Expanded panel MIC micro-broth dilution; settings: CaMHB
Experimental: as §1, §2, §3, §4

[21] = tested on: Staphylococcus epidermidis NRS 60; experiment: Expanded panel MIC micro-broth dilution; settings: CaMHB
Experimental: as §1, §2, §3, §4

[22] = tested on: Staphylococcus aureus ATCC 43300 MRSA; experiment: Forced evolution of resistance, 20 days serial passage and drug-free passages; settings: for MIC: Staphylococcus aureus
Experimental: The collaborator supplied sample as dry material. A stock solution at 10 mg/mL in neat DMSO was prepared.
The tested bacteria was Staphylococcus aureus ATCC 43300 MRSA (ID GP_020:02).
The mid log Staphylococcus aureus (ATCC 43300) growth culture was serially diluted and plated on a solid Tryptic Soy Agar (TSA) plates in duplicates and incubated at 37° C. overnight to determine viable colony count.
Staphylococcus aureus (ATCC 43300) was cultured in CaMHB at 37° C. overnight, then diluted 40-fold and incubated at 37° C. for a further 2-3 h. […] The plate was covered and incubated at 37° C. for 20 h.
Plate well with the highest drug concentration that permitted growth was then diluted. Despite plates were read by eye, reading at OD600 on the Epoch microplate spectrophotometer was used to adjust growth density of each well (it was approximately 1:1000). Then, 100 μL of the bacteria diluted was added to the new MIC plate. The OD600 was used to calculate the dilution of cells to a density of 10^6 CFU/mL. Bacteria were diluted in CaMHB and 100 μL was added to each well of the next replicate passage. The final well volume was 200 μL with a cell density of 5×10^5 CFU/mL. Each replicate (row) was assess as different strain, for this reason the dilution was done for each replicate.
Once prepared, the plate was covered and incubated at 37° C. overnight. Plate reading, compound preparation and bacterial preparation were repeated from Day 2 to Day 20.
Depending on the MIC of the day before, CBD tested concentrations were established.
Depending on the MIC of the day before, CBD and daptomycin tested concentrations were established to ensure at least three concentrations above, and three concentrations below MIC, based on the previous MIC results. Compounds were prepared in Protein LoBind Eppendorf 1.5 mL safelock tubes, diluting 320 μg/mL stock in DMSO in CaMHB to achieve two-fold the desired testing concentrations. The 100 μL of the selected concentration were added to each well (See FIG. 1). […] It was incubated at 37° C. overnight. Next day the same procedure was repeated.
Following 20 days of passaging in the presence of CBD and daptomycin, each replicate was passaged for 4 days in drug-free media to assess the stability of any induced resistance.
Day 20 plate was read and the same bacterial preparation methodology was followed. Same concentrations used in day 20 for CBD were used for the 4 days drug free passages. […] These concentrations were used for the 4 days drug free passages. Column 11 was used as the drug-free passage well, and column 12 as a negative growth control with 200 μL uninoculated media in each well. Diluted bacteria were added to the plate, one replicate per row, 100 μL per well. The final well volume was 200 μL with a cell density of 5×10^5 CFU/mL in columns 1-11, and CBD concentration range from 16-0.03 μg/mL in columns 1-10 (FIG. 2).
Subsequent drug-free passage plates were prepared in the same manner, except each replicate bacteria was passaged from column 11, the drug-free growth control well.
Alongside the test plate, a culture of S. aureus was passaged for 24 days without CBD, to establish a baseline for non-selective mutations in the growth conditions described.
Six wells were used as a positive growth controls, and six as negative growth controls with uninoculated media.
Subsequent passages were inoculated from well H7. The bacterial growth in H7 was resuspended by pipetting, then plates were read for optical density by spectrophotometer (Biotek Epoch) at 600 nm (OD600). The OD600 was used to calculate the dilution of cells to a density of 10^6 CFU/mL. Bacteria were diluted in CaMHB and 50 μL was added to each well of the next passage.

[23] = tested on: Staphylococcus aureus ATCC 43300; experiment: Broth MIC (Example 1); settings: Staphylococcus aureus
Experimental: The collaborator supplied sample as dry material. A stock solution at 10 mg/mL in neat DMSO (11.2 mg in 1.12 mL of DMSO) was prepared. The highest concentration tested in the assay was 128 μg/mL and 2% DMSO as a final concentration using 1/20 dilution to achieve these concentrations.

C=C(C)C1CCC(C)=CC1c1c(O)cc(CCCCC)cc1O (stereo not shown) [Cannabidiol, 2-[3-methyl-6-(1-methylethenyl)-2-cyclohexen-1-yl]-5-pentyl-1,3-benzenediol]
Cannabidiol MIC (Batch 1) ([1]; Staphylococcus epidermidis ATCC 12228): 2 µg/mL
MIC ([1]; Staphylococcus epidermidis, ATCC12228, Staphylococcus epidermidis ATCC 12228, read-out: Cannabidiol MIC (Batch 1)): 1 µg/mL (≈ 3.18 µM)
Cannabidiol MIC (Batch 1) ([2]; Staphylococcus aureus ATCC 25923): 2 µg/mL
MIC ([2]; Staphylococcus aureus, ATCC25923, Staphylococcus aureus ATCC 25923, read-out: Cannabidiol MIC (Batch 1)): 1 µg/mL (≈ 3.18 µM)
Cannabidiol MIC (Batch 1) ([3]; Bacillus subtilis ATCC 6633): 2 µg/mL
MIC ([3]; Bacillus subtilis, ATCC6633, Bacillus subtilis ATCC 6633, read-out: Cannabidiol MIC (Batch 1)): 1 µg/mL (≈ 3.18 µM)
Cannabidiol MIC (Batch 1) ([4]; Enterococcus faecium ATCC 35667): 1 µg/mL
MIC ([4]; Enterococcus faecium, ATCC35667, Enterococcus faecium ATCC 35667, read-out: Cannabidiol MIC (Batch 1)): 0.5 µg/mL (≈ 1.59 µM)
MIC [5]: 4 µg/mL (≈ 12.7 µM)
MIC [6]: 2 µg/mL (≈ 6.36 µM)
Cannabidiol MIC (Batch 1) [7]: 2 µg/mL
MIC ([7]; Staphylococcus aureus, read-out: Cannabidiol MIC (Batch 1)): 1 µg/mL (≈ 3.18 µM)
Cannabidiol MIC (Batch 1) ([8]; Staphylococcus warneri ATCC 27836): 4 µg/mL
MIC ([8]; Staphylococcus warneri, ATCC27836, Staphylococcus warneri ATCC 27836, read-out: Cannabidiol MIC (Batch 1)): 2 µg/mL (≈ 6.36 µM)
MIC [9]: 1 µg/mL (≈ 3.18 µM)
Cannabidiol MIC (Batch 1) ([10]; Bacillus cereus ATCC 11778): 2 µg/mL
MIC ([10]; Bacillus cereus, ATCC11778, Bacillus cereus ATCC 11778, read-out: Cannabidiol MIC (Batch 1)): 1 µg/mL (≈ 3.18 µM)
Cannabidiol MIC (Batch 1) ([11]; Kocuria rosea ATCC 31251): 2 µg/mL
MIC ([11]; Kocuria rosea, ATCC31251, Kocuria rosea ATCC 31251, read-out: Cannabidiol MIC (Batch 1)): 1 µg/mL (≈ 3.18 µM)
Cannabidiol MIC (Batch 1) ([12]; Staphylococcus capitis ATCC 27840): 2 µg/mL
MIC ([12]; Staphylococcus capitis, ATCC27840, Staphylococcus capitis ATCC 27840, read-out: Cannabidiol MIC (Batch 1)): 1 µg/mL (≈ 3.18 µM)
Cannabidiol MIC (Batch 1) [13]: 4 µg/mL
MIC ([13]; Staphylococcus warneri, read-out: Cannabidiol MIC (Batch 1)): 2 µg/mL (≈ 6.36 µM)
Cannabidiol MIC (Batch 1) ([14]; Staphylococcus aureus ATCC 33591): 2 µg/mL
MIC ([14]; Staphylococcus aureus, ATCC33591, Staphylococcus aureus ATCC 33591, read-out: Cannabidiol MIC (Batch 1)): 1 µg/mL (≈ 3.18 µM)
Cannabidiol MIC (Batch 1) ([15]; Streptococcus pneumoniae ATCC 33400): 2 µg/mL
MIC ([15]; Streptococcus pneumoniae, ATCC33400, Streptococcus pneumoniae ATCC 33400, read-out: Cannabidiol MIC (Batch 1)): 1 µg/mL (≈ 3.18 µM)
Cannabidiol MIC (Batch 1) ([16]; Staphylococcus aureus ATCC 29213): 2 µg/mL
MIC ([16]; Staphylococcus aureus, ATCC29213, Staphylococcus aureus ATCC 29213, read-out: Cannabidiol MIC (Batch 1)): 1 µg/mL (≈ 3.18 µM)
Cannabidiol MIC (Batch 1) ([17]; Bacillus megaterium ATCC 13632): 2 µg/mL
MIC ([17]; Priestia megaterium, ATCC13632, Bacillus megaterium ATCC 13632, read-out: Cannabidiol MIC (Batch 1)): 1 µg/mL (≈ 3.18 µM)
MIC [18]: 1 µg/mL (≈ 3.18 µM)
MIC [19]: 4 µg/mL (≈ 12.7 µM)
Cannabidiol MIC (Batch 1) ([20]; Staphylococcus epidermidis ATCC 14990): 2 µg/mL
MIC ([20]; Staphylococcus epidermidis, ATCC14990, Staphylococcus epidermidis ATCC 14990, read-out: Cannabidiol MIC (Batch 1)): 1 µg/mL (≈ 3.18 µM)
Cannabidiol MIC (Batch 1) ([21]; Staphylococcus epidermidis NRS 60): 4 µg/mL and 8 µg/mL
MIC ([21]; Staphylococcus epidermidis, NRS60, Staphylococcus epidermidis NRS 60, read-out: Cannabidiol MIC (Batch 1)): 4 to 8 µg/mL (≈ 12.7 to 25.4 µM)
MIC ([22]; 216 h, read-out: measured MIC on Day 9): 1 µg/mL (≈ 3.18 µM)
MIC ([22]; 312 h, read-out: MIC of replicate 1 at day 13): > 7 µg/mL
MIC ([22]; 432 h, read-out: MIC of replicate 1 by day 18): > 128 µg/mL
MIC ([22]; 480 h, read-out: MIC through the 20 days of assay): 2 to 4 µg/mL (≈ 6.36 to 12.7 µM)
MIC ([22]; read-out: MIC of replicates 2 and 8 on Days 20 and 21): 6 to 16 µg/mL
MIC of replicate 1 before the increase ([22]; replicate 1): 3.5 µg/mL
MIC ([23]; ATCC43300, CAMHB, read-out: Broth MIC): 1 µg/mL (≈ 3.18 µM)
MIC ([23]; ATCC43300, TSB + 5% Glucose, read-out: Broth MIC): 0.5 µg/mL
MIC ([23]; ATCC 43300 / MRSA, same strain of MRSA, read-out: standard vegetative cell MIC): 0.5 to 1 µg/mL (≈ 1.59 to 3.18 µM)
